According to patent publication US11236044B2, “Selective inhibitors of 12(S)-lipoxygenase (12-LOX) and methods for use of the same” (THE REGENTS OF THE UNIVERSITY OF MICHIGAN, priority 2018, dated 2022):
Where two headings read alike, the source gives them in different places.

What was measured:
[1] = Pharmacokinetic study of the inhibitors in mice blood plasma (PO and IV); type: in vivo; settings: for concentration at 2 h / concentration at 4 h / concentration at 7 h: mouse, plasma, 30 mg/kg
Protocol: Pharmacokinetic Study of the Inhibitors in Mice Blood Plasma
The blood plasma concentration of compounds A1, A2, and A4 in mice was determined following per os, oral compound administration (“PO”) and intravenous (“IV”) administration
Calibration curve. The concentration range was evaluated from 2.5-5000 ng/ml for compound A2, 1-5000 ng/ml for compound A4, and 5-5000 ng/ml for compound A1. The curve was built with linear regression with weighing (1/X2). The linear regression analysis was performed by plotting the peak area ratio (y) against the concentration (x) in ng/mL.
Instrument Conditions. The LC-MS and mass spectrometry conditions for the compounds tested are shown below.
Results. The individual and average compound A1, A2, and A4 concentration-time data for IV and PO dosed groups are listed in Table 1, and graphically presented in FIG. 1.

[2] = system: thrombus formation in cremaster arterioles; test: Laser-induced cremaster arteriole thrombosis model; type: in vivo; settings: WT mice, 3 mg/kg oral, twice a day for 2 days, versus PEG control; FIG. 4
Protocol: C57BL/6 wild-type (WT) control mice were purchased from Jackson Laboratories (Bar Harbor, Me., USA) and housed in the research facility at the University of Michigan. Compound A1 was synthesized and specifically formulated in Polyethylene Glycol 300 (PEG 300) for oral gavage dosing in mice for in vivo thrombosis and hemostasis studies. For laser-induced cremaster arteriole thrombosis model, mice were treated with compound A1 (3 mg/kg) or with PEG 300 via oral administration 2 times per day for 2 days prior to intravital microscopy studies on the third day.
Adult mice (10-12 weeks old) were anesthetized as described above and surgically prepared as described in detail, and a tracheal tube was inserted to facilitate breathing. The cremaster muscle was prepared and perfused with preheated bicarbonate-buffered saline throughout the experiment. DyLight 488-conjugated rat anti-mouse platelet GP1b8 antibody (0.1 μg/g; EMFRET Analytics) and Alexa Fluor 647-conjugated anti-fibrin (0.3 μg/g) or Alexa Flour 647 rat-anti mouse CD62P (3 μg/mouse) were administered by a jugular vein cannula prior to vascular injury. […] All captured images were analyzed for the change of fluorescent intensity over the course of thrombus formation after subtracting fluorescent background defined on an uninjured section of the vessel using the Slidebook program. […]

[3] = system: platelet accumulation in the lung (FcγRIIa-mediated platelet activation); test: Anti-GPIX-induced HITT model for lung thrombosis; type: in vivo, transgenic mice expressing the human FcγRIIa receptor; settings: 15 mg/kg oral gavage, four hours following HITT induction, versus PEG vehicle; FIG. 5
Protocol: Adult transgenic mice (10-12 weeks old) expressing the human FcγRIIa receptor on their platelets were anesthetized as described above and were orally gavaged with 15 mg/kg of A1 or control vehicle 30-minutes prior to IV bolus injection of 0.75 mg/kg anti-GPIX to induce activation of the FcγRIIa receptor on the platelets to mimic heparin-induced thrombocytopenia and thrombosis (“HITT”) in the mouse. The anti-GPIX antibody was conjugated to DyLight 488 to visualize its binding to platelets and platelet accumulation in the lung. 4 hours post-anti-GPIX induction, the animals were sacrificed and the lungs were visualized using the Li—COR Odyssey imager.
Representative images of platelet accumulation (green) in the mouse lungs from control (PEG vehicle) and A1-treated (15 mg/kg) mice are shown in FIG. 5

[4] = iv, IV 30 mg/kg, n=3 (outliers excluded), read-out: Concentration in Plasma, Mean
[5] = iv, IV 30 mg/kg, read-out: Concentration in Plasma, Mouse 1
[6] = iv, IV 30 mg/kg, read-out: Concentration in Plasma, Mouse 2
[7] = iv, IV 30 mg/kg, read-out: Concentration in Plasma, Mouse 3
[8] = po, PO 30 mg/kg, n=3 (outliers excluded), read-out: Concentration in Plasma, Mean
[9] = po, PO 30 mg/kg, read-out: Concentration in Plasma, Mouse 1
[10] = po, PO 30 mg/kg, read-out: Concentration in Plasma, Mouse 2
[11] = po, PO 30 mg/kg, read-out: Concentration in Plasma, Mouse 3

COc1cccc(CNc2ccc(S(=O)(=O)Nc3cccc(Cl)c3)cc2)c1O [Compound A1, N-(3-chlorophenyl)-4-((2-hydroxy-3-methoxybenzyl)amino) benzenesulfonamide]
Concentration in Plasma, Mouse 2 ([1]; PO 30 mg/kg, 2 h): *899.2 ng/ml
concentration at 2 h ([1]; iv, IV 30 mg/kg, 2 h, n=3 (outliers excluded), read-out: Concentration in Plasma, Mean): 77.4 ng/mL
concentration at 2 h ([1]; iv, IV 30 mg/kg, 2 h, read-out: Concentration in Plasma, Mouse 1): 69.6 ng/mL
concentration at 2 h ([1]; iv, IV 30 mg/kg, 2 h, read-out: Concentration in Plasma, Mouse 2): 124 ng/mL
concentration at 2 h ([1]; iv, IV 30 mg/kg, 2 h, read-out: Concentration in Plasma, Mouse 3): 38.8 ng/mL
concentration at 4 h [1, 4]: 29.2 ng/mL
concentration at 4 h [1, 5]: 46.4 ng/mL
concentration at 4 h [1, 6]: 20.2 ng/mL
concentration at 4 h [1, 7]: 20.9 ng/mL
concentration at 7 h [1, 4]: 16.9 ng/mL
concentration at 7 h [1, 5]: 36.5 ng/mL
concentration at 7 h [1, 6]: 5.9 ng/mL
concentration at 7 h [1, 7]: 8.3 ng/mL
concentration at 2 h ([1]; po, PO 30 mg/kg, 2 h, n=3 (outliers excluded), read-out: Concentration in Plasma, Mean): 40.4 ng/mL
concentration at 2 h ([1]; po, PO 30 mg/kg, 2 h, read-out: Concentration in Plasma, Mouse 1): 21 ng/mL
concentration at 2 h ([1]; po, PO 30 mg/kg, 2 h, read-out: Concentration in Plasma, Mouse 3): 59.7 ng/mL
concentration at 4 h [1, 8]: 52.9 ng/mL
concentration at 4 h [1, 9]: 48.9 ng/mL
concentration at 4 h [1, 10]: 89.8 ng/mL
concentration at 4 h [1, 11]: 20 ng/mL
concentration at 7 h [1, 8]: 15.2 ng/mL
concentration at 7 h [1, 9]: 12.1 ng/mL
concentration at 7 h [1, 10]: 24.1 ng/mL
concentration at 7 h [1, 11]: 9.3 ng/mL
thrombus formation (platelet accumulation and fibrin formation) in cremaster arterioles [2]: impairs thrombus formation
thrombocytopenia and thrombosis (platelet accumulation) in mouse lungs [3]: inhibit thrombocytopenia and thrombosis in mouse lungs
